Measured values published in patent US20210238225A1, “PEPTIDOMIMETIC INHIBITORS OF THE PEPTIDYL-PROLYL CIS/TRANS ISOMERASE (PIN1)” (DANA-FARBER CANCER INSTITUTE, INC., priority 2018, published 2021).
Non-standard residues stand in square brackets, D forms with d. Residues, ends and D or L forms follow the SMILES beside them. *: point of attachment. 2Nal = N[C@@H](Cc1ccc2ccccc2c1)C(=O)O; NH(4-Me-benzyl) = Cc1ccc(CN*)cc1; Cit = NC(=O)NCCC[C@H](N)C(=O)O; Pip = O=C(O)[C@@H]1CCCCN1; X3 = C=CS(=O)(=O)*; ClAc = O=C(CCl)*; X1 = O=C(C1CO1)*

What was measured:
[1] = target: Pin1 Cys 113 (Homo sapiens, UniProt Q13526); assay: Covalent labeling (intact MS); format: binding; settings: purified Pin1 with 5 μM inhibitor, 0-3 hr
Procedure: 5 μg of purified Pin1 protein in 50 μL of 20 mM HEPES pH 7.5 and 75 mM NaCl was incubated with 5 μM of respective Pin1 inhibitors for 0-3 hr. A Shimadzu XR HPLC was used to inject the entire sample onto a self-packed reverse-phase column (1/32 in outer diameter×500 μm inner diameter, 5 cm of POROS 50R2 resin). After desalting, protein was eluted with an HPLC gradient (0%-100% B in 4 min, A=0.2 M acetic acid in water, B=0.2 M acetic acid in acetonitrile, flow rate=10 μl/min) into a LTQ XL mass spectrometer (Thermo Fisher Scientific, San Jose, Calif., USA). LTQ XL MS spectra were acquired in centroid mode using the electron multipliers for ion detection. Mass spectra were deconvoluted using MagTran1.03b2 software (Zhang and Marshall, J. Am. Soc. Mass Spectrom. 9:225-233 (1998)).

[2] = target: T1, Pin1 (Homo sapiens, UniProt Q13526); assay: X-ray crystallography; parameters: A construct of full-length human Pin1 in a pET28 vector; made in house; host or cells: E. coli BL21 (DE3)
Procedure: A construct of full-length human Pin1 in a pET28 vector was overexpressed in E. coli BL21 (DE3) in LB medium in the presence of […] of kanamycin. Cells were grown at 37° C. to an OD of 0.8, cooled to 17° C., induced with 500 μM isopropyl-1-thio-D-galactopyranoside, incubated overnight at 17° C., collected by centrifugation, and stored at −80° C. Cell pellets were sonicated in buffer A (50 mM hepes 7.5, 300 mM NaCl, 10% glycerol, 10 mM Imidazole, and 3 mM 2-mercaptoethanol (BME) and the resulting lysate was centrifuged at 30,000×g for 40 min. Ni-NTA beads (Qiagen) were mixed with lysate supernatant for 30 min and washed with buffer A. Beads were transferred to an FPLC-compatible column and the bound protein was washed with 15% buffer B (50 mM hepes 7.5, 300 mM NaCl, 10% glycerol, 300 mM imidazole, and 3 mM BME) and eluted with 100% buffer B. Thrombin was added to the eluted protein and incubated at 4° C. overnight. The sample was concentrated and passed through a Superdex® 200 10/300 column (GE healthcare) in a buffer containing 20 mM hepes 7.5, 150 mMNaCl, 5% glycerol, 3 mM DTT, and 1 mM tris(2-carboxyethyl)phosphine (TCEP). Fractions were pooled, concentrated to approximately 37 mg/ml and frozen at −80° C.
Apo protein at a final concentration of 1 mM was crystallized by sitting-drop (200 nL+200 nL) vapor diffusion at 20° C. in the following crystallization buffer: 3 M (NH4)2SO4, 100 mM BisTris-pH 7.0, 1% PEG400, and 1 mM DTT. A volume of 200 nL of 1 mM compound 2b-6 was added directly to crystals for soaking at 20° C. for 16 hrs. Crystals were transferred briefly into crystallization buffer containing 25% glycerol prior to flash-freezing in liquid nitrogen.
Diffraction data from complex crystals were collected at beamline 24ID-E of the NE-CAT at the Advanced Photon Source (Argonne National Laboratory). Data sets were integrated and scaled using XDS (Kabsch, Acta Crystallogr. D Biol. Crystallogr. D66: 133-144 (2010)). […]

[3] = target: Pin1 (GST-Pin1) (Homo sapiens, UniProt Q13526); assay: Fluorescence polarization (FP) assay, binding to Pin1; settings: competition with fluorescein-labeled peptide probe; 12 hours pre-incubation at 4° C.; Kenakin Ki equation; read-out: Ki, μM (FP Assay)
[4] = target: T1, Pin1; assay: Cellular target engagement, live cell biotin competition assay in TNBC MDA-MB-231 cells; format: cell-based; parameters: endogenous in cells; host or cells: MDA-MB-231; settings: TNBC MDA-MB-231 cells; for Cellular Target Engagement?: 5 hours treatment, concentration under E7
Procedure: TNBC MDA-MB-231 cells were plated in 10 cm plates with 2.5 million cells per plate in 6 mL of media. The day after plating, cells were treated with the indicated concentrations of compound 18 for 5 hours. The cells were washed 2× with 0.9% NaCl (1 mL per 10 cm plate), and collected by scraping with a cell scraper. Cells were lysed in lysis buffer (50 mM Hepes pH 7.5, 150 mM NaCl, 1 mM EDTA, 10% v/v glycerol, 0.5% v/v […], protease inhibitors (Roche)) using 210 μL of cell lysis buffer per 10 cm plate of cells. After clarifying by centrifugation (14,000 rpm for 15 min at 4° C.), 5 μL of each lysate sample was combined with 5 μL of 2× LDS+10% β-mercaptoethanol, boiled for 5 minutes, and set aside for the input loading control (later to be loaded directly in the gel). Then, 200 μL of each lysate was then incubated with 1 μM of compound 2-32 (biotin probe compound) for 1 hour at 4° C. Lysates were then incubated with streptavidin agarose resin (30 μL of 1:1 beads: lysis buffer slurry) (Thermo Scientific™, cat. #20349) for 2 hours at 4° C. Beads were washed 4 times with 500 μL of washing buffer (50 mM Hepes, pH7.5, 10 mM NaCl, 1 mM EDTA, 10% glycerol), then pelleted by centrifugation and dried. The beads were then boiled at 95° C. for 5 minutes in 30 μL of 2× LDS+10% β-mercaptoethanol. Lysates were probed for specified proteins by western blotting using the Bolt system (Life Technologies™).

[5] = target: T1, Pin1; assay: Lysate target engagement (pull down with biotinylated probes; competition assay); format: binding; parameters: endogenous in cells; host or cells: MDA-MB-231; settings: for Lysate Target Engagement?: TNBC-MDA-MB-231 lysate, biotin/dtb probes: pull down, others: competition, concentration under E5
Procedure: (§1) TNBC-MDA-MB-231 cells were lysed in lysis buffer (50 mM Hepes pH 7.5, 150 mM NaCl, 1 mM ethylenediaminetetraacetic acid (EDTA), 10% v/v glycerol, 0.5% v/v NP-40, protease inhibitors (Roche)). After clarifying by centrifugation (14,000 rpm for 15 min at 4° C.), lysates were incubated with the indicated concentrations of candidate compound for 1 hour at 4° C. (500 μg of protein per sample, as determined by BCA). Lysates were then incubated with streptavidin agarose resin (30 μL of 1:1 beads: lysis buffer slurry) (Thermo Scientific™, cat. #20349) for 2 hours at 4° C. Beads were washed 4 times with 500 μL of washing buffer (50 mM Hepes, pH 7.5, 10 mM NaCl, 1 mM EDTA, 10% glycerol), then pelleted by centrifugation and dried. The beads were then boiled at 95° C. for 5 minutes in 30 μL of 2× LDS+10% β-mercaptoethanol. Lysates were probed for specified proteins by western blotting using the Bolt system (Life Technologies™).
as §1, with “mM EDTA,” for “mM ethylenediaminetetraacetic acid (EDTA),”, “by centrifugation,” for “by centrifugation (14,000 rpm for 15 min at 4° C.),”, “were pre-incubated” for “were incubated”, “of” for “of candidate”, “compound 18 overnight” for “compound for 1 hour”, “BCA). The lysates were then incubated with 1 μM of compound 2c (desthiobiotin probe) for 1 hour at 4° C.” for “BCA).”

T1 sequence (Q13526 whole entry): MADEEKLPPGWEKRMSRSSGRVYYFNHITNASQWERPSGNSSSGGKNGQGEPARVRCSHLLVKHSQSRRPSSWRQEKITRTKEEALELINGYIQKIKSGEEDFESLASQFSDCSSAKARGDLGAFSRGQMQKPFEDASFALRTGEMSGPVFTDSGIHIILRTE
Pin1 (GST-Pin1), sequence (Q13526 whole entry): as above
Pin1 Cys 113, sequence (Q13526 whole entry): as above

| SMILES | Covalent? (In tact MS), % labeling [1] | X-Ray Crystal Structure? [2] | Ki [3] | Cellular Target Engagement? [4] | Lysate Target Engagement? [5] | Cellular Target Engagement? concentration stated for complete engagement ([4]; read with the E6 line) | Lysate Target Engagement? concentration stated for the engagement or pull down ([5]; read with the E4 line of the same compound (complete, partial, probe pull down)) |
| --- | --- | --- | --- | --- | --- | --- | --- |
| NC(=O)CC[C@H](NC(=O)[C@H](Cc1ccc2ccccc2c1)NC(=O)[C@@H]1CCCCN1C(=O)[C@H](CCC(=O)O)NC(=O)CCl)C(N)=O [Compound 2b-3, (S)-4-(2-Chloroacetamido)-5-((S)-2-(((S)-1-(((S)-1,5-diamino-1,5-dioxopentan-2-yl)amino)-3-(naphthalen-2-yl)-1-oxopropan-2-yl)carbamoyl)piperidin-1-yl)-5-oxopentanoic acid] (ClAc-E[Pip][2Nal]Q-NH2) | Yes (81% | Yes |  |  |  |  |  |
| NC(=O)NCCC[C@H](NC(=O)[C@H](Cc1ccc2ccccc2c1)NC(=O)[C@@H]1CCCCN1C(=O)[C@H](CCC(=O)O)NC(=O)C1CO1)C(N)=O (stereo partly drawn) [Compound 3b-1, (4S)-5-((S)-2-(((S)-1-(((S)-1-Amino-1-oxo-5-ureidopentan-2-yl)amino)-3-(naphthalen-2-yl)-1-oxopropan-2-yl)carbamoyl)piperidin-1-yl)-4-(oxirane-2-carboxamido)-5-oxopentanoic acid] (X1-E[Pip][2Nal][Cit]-NH2) | Yes (93% |  | 1.61 µM | No | No |  |  |
| Cc1ccc(CNC(=O)[C@H](CCCNC(N)=O)NC(=O)[C@H](Cc2c[nH]c3ccccc23)NC(=O)[C@@H]2CCCCN2C(=O)[C@H](Cc2ccccc2)NC(=O)CCl)cc1 [Compound 11-23, (S)—N—((S)-3-(1H-indol-3-yl)-1-(((S)-1-((4-methylbenzyl)amino)-1-oxo-5-ureidopentan-2-yl)amino)-1-oxopropan-2-yl)-1-((2-chloroacetyl)-L-phenylalanyl)piperidine-2-carboxamide] (ClAc-F[Pip]W[Cit]-{NH(4-Me-benzyl)}) | Yes (100% |  | 0.004 µM | Yes-Complete |  | at 10 μM |  |
| C=CS(=O)(=O)N[C@@H](CCC(=O)O)C(=O)N1CCCC[C@H]1C(=O)N[C@@H](Cc1ccc2ccccc2c1)C(=O)N[C@@H](CCCNC(N)=O)C(N)=O [Compound 4, (S)-5-((S)-2-(((S)-1-(((S)-1-Amino-1-oxo-5-ureidopentan-2-yl)amino)-3-(naphthalen-2-yl)-1-oxopropan-2-yl)carbamoyl)piperidin-1-yl)-5-oxo-4(vinylsulfonamido)pentanoic acid] (X3-E[Pip][2Nal][Cit]-NH2) | Yes (93% |  | 0.35 µM |  | No |  |  |
| COC(=O)CC[C@H](NC(=O)CCl)C(=O)N1CCCC[C@H]1C(=O)N[C@@H](Cc1ccc2ccccc2c1)C(=O)N[C@@H](CCCNC(N)=O)C(N)=O [Compound 2-11, Methyl (S)-5-((S)-2-(((S)-1-(((S)-1-amino-1-oxo-5-ureidopentan-2-yl)amino)-3-(naphthalen-2-yl)-1-oxopropan-2-yl)carbamoyl)piperidin-1-yl)-4-(2-chloroacetamido)-5-oxopentanoate] (ClAc-E(OMe)[Pip][2Nal][Cit]-NH2) |  |  | 0.06 µM | No | Yes-complete |  | by 10 μM |
| COC(=O)CC[C@H](NC(=O)CCl)C(=O)N1CCCC[C@H]1C(=O)N[C@@H](Cc1c[nH]c2ccccc12)C(=O)N[C@@H](Cc1c[nH]c2ccccc12)C(=O)NCc1ccc(C)cc1 [Compound 11-2, Methyl (S)-5-((S)-2-(((S)-1-(((S)-3-(1H-indol-3-yl)-1-((4-methylbenzyl)amino)-1-oxopropan-2-yl)amino)-3-(1H-indol-3-yl)-1-oxopropan-2-yl)carbamoyl)piperidin-1-yl)-4-(2-chloroacetamido)-5-oxopentanoate] (ClAc-E(OMe)[Pip]WW-{NH(4-Me-benzyl)}) |  |  | > 10 µM | No | No |  |  |
